The supplement of paper PMC11451515

Test system: P12-Ichikawa
Experiment: cell viability relative to DMSO control; higher = less cytotoxic
Settings: 48 h
Outline: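 Viability is expressed as a percentage of DMSO wells within each plate, and cell-free wells serve as background. Seeding densities in the 1536-well plates (5 μl) were 500 cells/well for NOMO1 or SEM leukemia cells and 1000 cells/well for P12-Ichikawa. Each line was adapted for at least four passages in each medium. Library compounds in DMSO were pin-dosed at 47 μM to 0.79 nM (11 points, threefold), and CellTiter-Glo One luminescence was read after 48 h at 37°C.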

[1] = HPLM + 10% dialyzed FBS, 0.000781 µM
[2] = HPLM + 10% dialyzed FBS, 0.00234 µM
[3] = HPLM + 10% dialyzed FBS, 0.00702 µM
[4] = HPLM + 10% dialyzed FBS, 0.0211 µM
[5] = HPLM + 10% dialyzed FBS, 0.0632 µM
[6] = HPLM + 10% dialyzed FBS, 0.19 µM
[7] = HPLM + 10% dialyzed FBS, 0.569 µM
[8] = HPLM + 10% dialyzed FBS, 1.71 µM
[9] = HPLM + 10% dialyzed FBS, 5.12 µM
[10] = HPLM + 10% dialyzed FBS, 15.4 µM
[11] = HPLM + 10% dialyzed FBS, 46.1 µM
[12] = RPMI 5 mM glucose + 10% FBS, 0.000781 µM
[13] = RPMI 5 mM glucose + 10% FBS, 0.00234 µM
[14] = RPMI 5 mM glucose + 10% FBS, 0.00702 µM
[15] = RPMI 5 mM glucose + 10% FBS, 0.0211 µM
[16] = RPMI 5 mM glucose + 10% FBS, 0.0632 µM
[17] = RPMI 5 mM glucose + 10% FBS, 0.19 µM
[18] = RPMI 5 mM glucose + 10% FBS, 0.569 µM
[19] = RPMI 5 mM glucose + 10% FBS, 1.71 µM
[20] = RPMI 5 mM glucose + 10% FBS, 5.12 µM
[21] = RPMI 5 mM glucose + 10% FBS, 15.4 µM
[22] = RPMI 5 mM glucose + 10% FBS, 46.1 µM
[23] = RPMI 5 mM glucose + 10% dialyzed FBS, 0.000781 µM
[24] = RPMI 5 mM glucose + 10% dialyzed FBS, 0.00234 µM
[25] = RPMI 5 mM glucose + 10% dialyzed FBS, 0.00702 µM
[26] = RPMI 5 mM glucose + 10% dialyzed FBS, 0.0211 µM
[27] = RPMI 5 mM glucose + 10% dialyzed FBS, 0.0632 µM
[28] = RPMI 5 mM glucose + 10% dialyzed FBS, 0.19 µM
[29] = RPMI 5 mM glucose + 10% dialyzed FBS, 0.569 µM
[30] = RPMI 5 mM glucose + 10% dialyzed FBS, 1.71 µM
[31] = RPMI 5 mM glucose + 10% dialyzed FBS, 5.12 µM
[32] = RPMI 5 mM glucose + 10% dialyzed FBS, 15.4 µM
[33] = RPMI 5 mM glucose + 10% dialyzed FBS, 46.1 µM

Compound	cell viability [1]	cell viability [2]	cell viability [3]	cell viability [4]	cell viability [5]	cell viability [6]	cell viability [7]	cell viability [8]	cell viability [9]	cell viability [10]	cell viability [11]	cell viability [12]	cell viability [13]	cell viability [14]	cell viability [15]	cell viability [16]	cell viability [17]	cell viability [18]	cell viability [19]	cell viability [20]	cell viability [21]	cell viability [22]	cell viability [23]	cell viability [24]	cell viability [25]	cell viability [26]	cell viability [27]	cell viability [28]	cell viability [29]	cell viability [30]	cell viability [31]	cell viability [32]	cell viability [33]
CC(N[C@H]1CCCC[C@@H]1NC(=O)c1ccc(Cl)cc1)c1cccc2ccccc12 (stereo not given in full)	107%	109%	114%	110%	113%	115%	111%	116%	114%	39.7%	28.1%	117%	119%	113%	118%	117%	115%	119%	111%	102%	30.9%	35.2%	105%	105%	109%	104%	102%	113%	108%	110%	106%	30.6%	28.7%
CC(C)OC(=O)[C@H](C)N[P@](=O)(OC[C@H]1O[C@@H](N2\C=C/C(=O)NC2=O)[C@](C)(F)[C@@H]1O)OC3=CC=CC=C3	104%	111%	117%	110%	102%	108%	94.3%	41.5%	8.75%	6.42%	9.25%	113%	99%	124%	109%	112%	101%	110%	98.1%	69.3%	7.18%	5.81%	96.2%	105%	106%	103%	102%	102%	101%	93.1%	49.8%	12%	11.3%
Cc1ccccc1C(=O)Nc1ccc(C(=O)N2CCCC(O)c3cc(Cl)ccc32)c(C)c1 (stereo not given)	116%	117%	120%	122%	127%	135%	131%	136%	129%	127%	124%																						
O=C(O)c1cc(/N=N/c2ccc([S+](=O)([O-])Nc3ccccn3)cc2)ccc1O	108%	107%	112%	102%	113%	116%	116%	107%	106%	98.6%	92.3%	108%	111%	105%	110%	119%	115%	114%	122%	113%	111%	108%	103%	114%	110%	102%	120%	114%	119%	120%	110%	102%	102%
C[C@@H](CN1CC(=O)NC(=O)C1)N1CC(=O)NC(=O)C1	104%	111%	110%	109%	108%	75%	47%	11.5%	13.7%	4.45%	2.49%	101%	104%	98.5%	116%	111%	97.7%	80.7%	18.1%	18.9%	5.1%	4.44%	94.6%	108%	96.8%	110%	105%	84%	61.3%	19.7%	20%	6.43%	4.62%
CCCCCCCCCCCCCC(=O)N[C@H](CO)[C@H](O)c1ccc([N+](=O)[O-])cc1	99.4%	90.6%	100%	104%	102%	102%	105%	79.7%	40.3%	2.44%	1.98%	96.9%	94.2%	95.5%	92.7%	102%	84.9%	89.1%	55.1%	21.1%	3.47%	1.51%	89.4%	81.5%	90.9%	94%	94.8%	85.8%	93.4%	52%	24.6%	4.09%	2.4%
CCCCCNC(=O)N1CCC(CN(Cc2ccc(Cl)cc2)Cc2ccc([N+](=O)[O-])s2)C1 (stereo not given)	113%	127%	119%	121%	111%	114%	111%	110%	103%	96.9%	85.6%	108%	116%	113%	107%	114%	100%	107%	97%	103%	90.4%	74.2%	123%	104%	104%	117%	111%	113%	109%	95.2%	101%	94.3%	78.9%
COc1ccc2c(c1)[C@]13CCCCC1C(C2)N(C)CC3 (stereo not given in full)	107%	118%	114%	116%	116%	122%	124%	126%	113%	127%	117%	111%	127%	119%	124%	128%	129%	134%	118%	133%	128%	107%	106%	112%	119%	120%	121%	117%	126%	122%	119%	122%	20.9%
CCCCN(CCCC)CC(O)c1cc(Cl)cc2c1-c1ccc(Cl)cc1/C2=C/c1ccc(Cl)cc1 (stereo not given)	97.6%	99.8%	114%	107%	107%	111%	109%	117%	104%	121%	117%	98.6%	102%	107%	98%	102%	117%	104%	113%	97.5%	109%	82.5%	83.9%	99.7%	101%	107%	96.9%	98.1%	97.5%	103%	104%	107%	107%
CCCNC(=O)Nc1ccc(Oc2ncnc3cc(OC)c(OC)cc23)cc1Cl	88.2%	97.6%	93.4%	99.9%	98.7%	97.3%	89%	76.1%	88.1%	95.6%	84.2%	93.9%	97.3%	97.2%	99.8%	94.7%	96.3%	87.6%	82.8%	85.2%	81.3%	80.4%	98.7%	99.5%	94.8%	99.7%	92%	91.1%	91.4%	93.5%	86.8%	86.5%	75.7%
COc1ccc(C(=O)CC2(O)C(=O)Nc3c(Cl)ccc(Cl)c32)cc1 (stereo not given)	102%	114%	114%	114%	117%	124%	120%	106%	55%	19.6%	14.5%	107%	104%	117%	109%	116%	125%	118%	106%	55.8%	14.1%	12.9%	98.9%	116%	126%	115%	120%	128%	122%	105%	81.9%	25.4%	27.5%
CN1CC(=O)N2[C@H](c3ccc4c(c3)OCO4)c3[nH]c4ccccc4c3C[C@@H]2C1=O	100%	99.2%	100%	97.9%	104%	96.6%	101%	91.6%	89.9%	89.6%	78.8%	92.4%	96.8%	90.4%	92.6%	95%	103%	90%	94.1%	82.7%	96.9%	79.6%	89.8%	92%	92.6%	89.6%	90.9%	92.1%	85.1%	87%	83.6%	81%	78.5%
Cc1cccc(Nc2ccncc2[S+](=O)([O-])NC(=O)NC(C)C)c1	102%	97.6%	100%	93.8%	101%	96.7%	93%	90%	91.3%	85.8%	83.1%	94.9%	95.5%	95.4%	94.2%	104%	104%	98.2%	94.1%	96.8%	86.4%	86.6%	86.1%	89.3%	93.1%	90%	91.9%	97.2%	90%	87.3%	88%	85.5%	76.1%
COc1cccc2c1C(=O)c1c(O)c3c(c(O)c1C2=O)C[C@@](O)(C(=O)CO)C[C@@H]3O[C@H]1C[C@H](N)[C@H](O)[C@H](C)O1	115%	114%	112%	117%	116%	107%	98.6%	58.2%	7.45%	5.63%	11.9%	113%	116%	119%	114%	113%	108%	93.8%	44.7%	7.04%	5.82%	8.62%	109%	114%	108%	107%	117%	106%	92.2%	67%	7.81%	7.58%	13%
C[C@@H]1CCO[C@H]2CN\3/C=C(/C(=O)NCC4=C(F)C=C(F)C=C4)C(=O)\C(=C3C(=O)N12)O	108%	109%	103%	109%	106%	105%	103%	96.5%	103%	104%	93.5%	99.3%	99.5%	106%	105%	101%	104%	111%	96.3%	93.9%	91.9%	74%	105%	97.1%	103%	97.9%	101%	95.6%	98.7%	93.6%	97.7%	86.5%	82.1%
C=C[C@H]1CN2CCC1C[C@@H]2C(O)c1ccnc2ccc(OC)cc12 (stereo not given in full)	112%	131%	117%	119%	127%	122%	123%	133%	123%	122%	103%												125%	121%	120%	128%	145%	128%	136%	133%	123%	135%	124%
